{
  "source": "paper PMC12281424",
  "about": "“A Rac-specific competitive inhibitor of guanine nucleotide binding reduces metastasis in triple-negative breast cancer” (Cell Reports Medicine, 2025)",
  "key": {"Tachykinin NK1": {"target": "Tachykinin NK1 (Homo sapiens, UniProt P25103)", "test": "Safety screen", "format": "binding", "experimental": "(§1) Blood cell counts, kinase profiler, safety screen, bacterial cytotoxicity, Ames, micronucleus assays were performed by the company Eurofins (France)."}, "TrkB(h)": {"target": "TrkB(h) (Homo sapiens, UniProt Q16620)", "test": "Kinase Profiler", "format": "biochemical", "experimental": "(§2) The kinase profiler was performed by the company Eurofins (Discovery, Panlab and Cerep)."}, "IR(h)": {"target": "IR(h) (Homo sapiens, UniProt P06213)", "test": "Kinase Profiler", "format": "biochemical", "experimental": "(§3) Blood cell counts, kinase profiler, safety screen, bacterial cytotoxicity, Ames, micronucleus assays were performed by the company Eurofins (France). The kinase profiler was performed by the company Eurofins (Discovery, Panlab and Cerep)."}, "PAK2(h)": {"target": "PAK2(h) (Homo sapiens, UniProt Q13177)", "sequence (Q13177 whole entry)": "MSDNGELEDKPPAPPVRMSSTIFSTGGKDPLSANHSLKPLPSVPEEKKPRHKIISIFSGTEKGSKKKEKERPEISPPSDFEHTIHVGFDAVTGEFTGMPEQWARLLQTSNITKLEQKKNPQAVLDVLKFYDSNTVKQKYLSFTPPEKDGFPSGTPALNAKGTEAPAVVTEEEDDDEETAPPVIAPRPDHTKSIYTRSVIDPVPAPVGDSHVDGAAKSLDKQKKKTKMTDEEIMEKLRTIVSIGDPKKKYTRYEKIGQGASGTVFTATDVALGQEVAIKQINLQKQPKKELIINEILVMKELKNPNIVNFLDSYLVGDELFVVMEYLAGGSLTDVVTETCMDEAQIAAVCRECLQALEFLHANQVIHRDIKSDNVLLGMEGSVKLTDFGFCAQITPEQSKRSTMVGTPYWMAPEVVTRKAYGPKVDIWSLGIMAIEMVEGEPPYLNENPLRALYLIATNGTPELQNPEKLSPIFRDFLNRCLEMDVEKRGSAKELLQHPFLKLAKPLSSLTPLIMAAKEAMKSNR", "test": "Kinase Profiler", "format": "biochemical", "experimental": "as §3"}, "[1]": {"tested_on": "GABAA, Ro-15-1788, Hippocampus", "test": "Safety screen", "format": "binding, rat", "experimental": "as §1"}, "CHK2(I157T)(h)": {"target": "CHK2(I157T)(h) (Homo sapiens, UniProt O96017, I157T)", "test": "Kinase Profiler", "format": "biochemical", "experimental": "as §2"}, "NEK11(h)": {"target": "NEK11(h) (Homo sapiens, UniProt Q8NG66)", "sequence (Q8NG66 whole entry)": "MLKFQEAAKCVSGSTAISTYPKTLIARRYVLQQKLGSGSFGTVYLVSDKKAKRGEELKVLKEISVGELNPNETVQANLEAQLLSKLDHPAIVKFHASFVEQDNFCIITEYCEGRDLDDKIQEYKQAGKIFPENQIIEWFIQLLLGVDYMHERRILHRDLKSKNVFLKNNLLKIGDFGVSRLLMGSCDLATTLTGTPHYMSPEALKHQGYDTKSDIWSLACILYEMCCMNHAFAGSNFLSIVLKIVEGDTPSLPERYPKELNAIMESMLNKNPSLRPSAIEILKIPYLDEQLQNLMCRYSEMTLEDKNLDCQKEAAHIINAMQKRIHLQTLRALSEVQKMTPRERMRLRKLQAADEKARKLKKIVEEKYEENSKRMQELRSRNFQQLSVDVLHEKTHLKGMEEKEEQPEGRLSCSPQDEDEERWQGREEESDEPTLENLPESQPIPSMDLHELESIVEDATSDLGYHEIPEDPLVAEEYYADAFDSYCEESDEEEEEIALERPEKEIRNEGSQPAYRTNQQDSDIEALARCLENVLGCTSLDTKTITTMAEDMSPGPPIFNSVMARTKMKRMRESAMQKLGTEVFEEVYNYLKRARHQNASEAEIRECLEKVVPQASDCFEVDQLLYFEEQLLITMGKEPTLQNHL", "test": "Kinase Profiler", "format": "biochemical", "experimental": "as §2"}, "Pim-1(h)": {"target": "Pim-1(h) (Homo sapiens, UniProt P11309)", "test": "Kinase Profiler", "format": "biochemical", "experimental": "as §3"}, "SGK3(h)": {"target": "SGK3(h) (Homo sapiens, UniProt Q96BR1)", "test": "Kinase Profiler", "format": "biochemical", "experimental": "as §2"}, "CT26 cells": {"tested_on": "CT26 cells", "test": "Colorectal tumor model (hepatic metastasis)", "format": "in vivo, mouse", "details": "25 mg/kg/day i.p., 2 weeks after s.c. implantation", "excerpt": "Figure 7 A41 decreases metastasis of colorectal cancer cells in vivo (A–C) Therapeutic effect of A41 on the pulmonary metastasis formation of colorectal circulating tumoral cells (CT26 cells). In control, A41-, and cisplatin-treated mice, metastasis surface (A), survival (B), and body weight (C) were quantified (N = 10 mice; ∗p < 0.05 vs. controls). (D) Therapeutic effect of A41 on colorectal tumor-dependent hepatic metastasis formation (N = 5–8 mice; ∗p < 0.05, ∗∗p < 0.01, and ∗∗∗p < 0.001 vs. controls).\n8 weeks-old BALB/c female mice were obtained from the School of Veterinary Sciences at the National University of La Plata and treated in accordance with the Canadian Council on Animal Care and ARRIVE guidelines. 1x10^6 CT26 viable cells were resuspended in PBS (100 μL) and injected subcutaneously into the right flank of each animal. Mice were distributed and treated as follows: control, consist in a daily intraperitoneal (ip) administration of vehicle (5% DMSO, 45% PEG400); A41, ip administration of 25 mg/kg BW/day; 5-FU, ip administration 20 mg/kgBW/week in sterile water; A41+5-FU, ip administration of A41 and 5-FU treatments. Liver metastases were identified and quantified under a stereoscopic magnifying glass. These lesions were distinguished by their isolated circular shape, their marked whitish color contrasting with the reddish liver tissue, and their raised appearance."}, "CDK12/cyclinK(h)": {"target": "CDK12/cyclinK(h) (Homo sapiens, UniProt Q9NYV4)", "test": "Kinase Profiler", "format": "biochemical", "experimental": "as §3"}, "CDK13/cyclinK(h)": {"target": "CDK13/cyclinK(h) (Homo sapiens, UniProt Q14004)", "experimental": "as §3"}, "MARK1(h)": {"target": "MARK1(h) (Homo sapiens, UniProt Q9P0L2)", "test": "Kinase Profiler", "format": "biochemical", "experimental": "as §2"}, "JNK2α2(h)": {"target": "JNK2α2(h) (Homo sapiens, UniProt P45984)", "sequence (P45984 whole entry)": "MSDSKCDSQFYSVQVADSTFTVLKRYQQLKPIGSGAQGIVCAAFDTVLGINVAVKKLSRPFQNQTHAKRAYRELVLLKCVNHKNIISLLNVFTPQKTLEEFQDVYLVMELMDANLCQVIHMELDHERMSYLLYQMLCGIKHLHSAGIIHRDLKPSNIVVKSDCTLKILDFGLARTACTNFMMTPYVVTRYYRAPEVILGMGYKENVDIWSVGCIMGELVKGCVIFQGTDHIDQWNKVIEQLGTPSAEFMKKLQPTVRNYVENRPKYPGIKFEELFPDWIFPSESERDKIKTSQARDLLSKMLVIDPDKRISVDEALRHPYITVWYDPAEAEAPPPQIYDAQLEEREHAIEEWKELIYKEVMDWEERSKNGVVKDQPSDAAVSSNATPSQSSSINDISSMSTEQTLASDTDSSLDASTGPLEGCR", "test": "Kinase Profiler", "format": "biochemical", "experimental": "as §2"}, "MLCK(h)": {"target": "MLCK(h) (Homo sapiens, UniProt Q15746)", "test": "Kinase Profiler", "format": "biochemical", "experimental": "as §3"}, "Abl (H396P) (h)": {"target": "Abl (H396P) (h) (Homo sapiens, UniProt P00519, H396P)", "test": "Kinase Profiler", "format": "biochemical", "experimental": "as §2"}, "JAK1(h)": {"target": "JAK1(h) (Homo sapiens, UniProt P23458)", "test": "Kinase Profiler", "format": "biochemical", "experimental": "as §2"}, "IGF-1R(h)": {"target": "IGF-1R(h) (Homo sapiens, UniProt P08069)", "test": "Kinase Profiler", "format": "biochemical", "experimental": "as §3"}, "PI3K (p110a/p65a)(m)": {"tested_on": "PI3K (p110a/p65a)(m)", "test": "Kinase Profiler", "format": "biochemical, mouse", "experimental": "as §3"}, "Met(D1246N)(h)": {"target": "Met(D1246N)(h) (Homo sapiens, UniProt P08581, D1228N)", "test": "Kinase Profiler", "format": "biochemical", "experimental": "as §2"}, "MARK4(h)": {"target": "MARK4(h) (Homo sapiens, UniProt Q96L34)", "test": "Kinase Profiler", "format": "biochemical", "experimental": "as §2"}, "CHK1(h)": {"target": "CHK1(h) (Homo sapiens, UniProt O14757)", "sequence (O14757 whole entry)": "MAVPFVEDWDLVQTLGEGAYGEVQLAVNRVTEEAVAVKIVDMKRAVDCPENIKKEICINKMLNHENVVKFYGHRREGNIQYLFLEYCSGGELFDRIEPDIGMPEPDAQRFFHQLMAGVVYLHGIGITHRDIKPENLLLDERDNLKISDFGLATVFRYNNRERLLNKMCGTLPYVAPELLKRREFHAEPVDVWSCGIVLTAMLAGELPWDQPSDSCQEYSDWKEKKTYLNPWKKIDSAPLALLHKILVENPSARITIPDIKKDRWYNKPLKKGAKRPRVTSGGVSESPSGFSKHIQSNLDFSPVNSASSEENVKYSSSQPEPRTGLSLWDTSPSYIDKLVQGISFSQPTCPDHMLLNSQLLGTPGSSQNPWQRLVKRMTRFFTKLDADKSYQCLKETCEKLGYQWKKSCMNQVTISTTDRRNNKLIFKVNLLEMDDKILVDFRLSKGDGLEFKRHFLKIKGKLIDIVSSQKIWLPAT", "test": "Kinase Profiler", "format": "biochemical", "experimental": "as §2"}, "EphA1(h)": {"target": "EphA1(h) (Homo sapiens, UniProt P21709)", "test": "Kinase Profiler", "format": "biochemical", "experimental": "as §2"}, "CLK1(h)": {"target": "CLK1(h) (Homo sapiens, UniProt P49759)", "test": "Kinase Profiler", "format": "biochemical", "experimental": "as §2"}, "TNIK(h)": {"target": "TNIK(h) (Homo sapiens, UniProt Q9UKE5)", "sequence (Q9UKE5 whole entry)": "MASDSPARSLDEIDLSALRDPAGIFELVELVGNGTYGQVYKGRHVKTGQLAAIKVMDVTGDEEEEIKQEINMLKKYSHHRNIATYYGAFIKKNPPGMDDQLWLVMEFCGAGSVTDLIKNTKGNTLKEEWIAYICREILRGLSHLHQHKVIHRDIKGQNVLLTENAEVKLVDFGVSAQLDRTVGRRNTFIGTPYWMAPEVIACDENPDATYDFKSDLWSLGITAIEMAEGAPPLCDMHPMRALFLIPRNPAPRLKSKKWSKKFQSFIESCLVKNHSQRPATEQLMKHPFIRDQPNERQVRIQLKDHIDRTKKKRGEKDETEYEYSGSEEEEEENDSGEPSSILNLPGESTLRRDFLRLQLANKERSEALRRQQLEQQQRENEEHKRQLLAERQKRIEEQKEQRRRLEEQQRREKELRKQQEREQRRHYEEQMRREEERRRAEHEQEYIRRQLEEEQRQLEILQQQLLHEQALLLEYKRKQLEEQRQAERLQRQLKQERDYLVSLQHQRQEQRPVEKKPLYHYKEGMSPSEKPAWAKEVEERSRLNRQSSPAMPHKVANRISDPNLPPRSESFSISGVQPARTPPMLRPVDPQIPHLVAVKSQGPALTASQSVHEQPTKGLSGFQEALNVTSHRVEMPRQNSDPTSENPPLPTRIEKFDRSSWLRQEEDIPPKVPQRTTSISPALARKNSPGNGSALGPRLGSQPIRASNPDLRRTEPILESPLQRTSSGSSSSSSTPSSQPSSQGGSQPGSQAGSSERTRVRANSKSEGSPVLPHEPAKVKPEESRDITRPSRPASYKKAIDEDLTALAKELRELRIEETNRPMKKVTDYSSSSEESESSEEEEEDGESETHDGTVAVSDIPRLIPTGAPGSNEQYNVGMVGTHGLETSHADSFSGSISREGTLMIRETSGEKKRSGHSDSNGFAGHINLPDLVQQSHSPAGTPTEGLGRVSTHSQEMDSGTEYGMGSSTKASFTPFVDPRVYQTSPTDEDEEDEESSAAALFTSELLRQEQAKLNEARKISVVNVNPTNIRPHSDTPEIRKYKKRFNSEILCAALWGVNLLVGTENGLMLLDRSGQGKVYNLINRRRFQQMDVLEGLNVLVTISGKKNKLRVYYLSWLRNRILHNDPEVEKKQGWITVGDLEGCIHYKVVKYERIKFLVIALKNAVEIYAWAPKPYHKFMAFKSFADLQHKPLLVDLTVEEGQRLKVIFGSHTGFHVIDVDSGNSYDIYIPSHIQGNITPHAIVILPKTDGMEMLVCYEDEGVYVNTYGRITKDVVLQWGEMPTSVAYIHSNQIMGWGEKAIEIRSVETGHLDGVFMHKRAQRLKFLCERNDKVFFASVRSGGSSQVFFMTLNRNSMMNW", "test": "Kinase Profiler", "format": "biochemical", "experimental": "as §2"}, "Abl(T315I)(h)": {"target": "Abl(T315I)(h) (Homo sapiens, UniProt P00519, T315I)", "test": "Kinase Profiler", "format": "biochemical", "experimental": "as §2"}, "NDR1(h)": {"target": "NDR1(h) (Homo sapiens, UniProt Q15208)", "test": "Kinase Profiler", "format": "biochemical", "experimental": "as §2"}, "MST4(h)": {"target": "MST4(h) (Homo sapiens, UniProt Q9P289)", "sequence (Q9P289 whole entry)": "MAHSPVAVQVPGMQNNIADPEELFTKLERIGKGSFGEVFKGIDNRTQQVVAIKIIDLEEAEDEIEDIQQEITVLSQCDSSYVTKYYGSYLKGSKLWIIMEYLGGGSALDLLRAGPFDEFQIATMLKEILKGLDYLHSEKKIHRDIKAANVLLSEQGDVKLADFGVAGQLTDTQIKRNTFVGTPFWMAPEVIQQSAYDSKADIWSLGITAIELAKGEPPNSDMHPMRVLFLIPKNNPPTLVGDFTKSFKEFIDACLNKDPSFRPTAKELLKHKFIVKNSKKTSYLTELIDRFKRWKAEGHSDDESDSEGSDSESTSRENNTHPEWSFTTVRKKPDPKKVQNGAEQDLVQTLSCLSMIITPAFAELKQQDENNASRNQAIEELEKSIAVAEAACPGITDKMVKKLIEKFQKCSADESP", "test": "Kinase Profiler", "format": "biochemical", "experimental": "as §2"}, "PKR(h)": {"target": "PKR(h) (Homo sapiens, UniProt P19525)", "test": "Kinase Profiler", "format": "biochemical", "experimental": "as §2"}, "Plk1(h)": {"target": "Plk1(h) (Homo sapiens, UniProt P53350)", "test": "Kinase Profiler", "format": "biochemical", "experimental": "as §2"}, "Ret(V804M)(h)": {"target": "Ret(V804M)(h) (Homo sapiens, UniProt P07949, V804M)", "sequence (P07949 29-1114 V804M)": "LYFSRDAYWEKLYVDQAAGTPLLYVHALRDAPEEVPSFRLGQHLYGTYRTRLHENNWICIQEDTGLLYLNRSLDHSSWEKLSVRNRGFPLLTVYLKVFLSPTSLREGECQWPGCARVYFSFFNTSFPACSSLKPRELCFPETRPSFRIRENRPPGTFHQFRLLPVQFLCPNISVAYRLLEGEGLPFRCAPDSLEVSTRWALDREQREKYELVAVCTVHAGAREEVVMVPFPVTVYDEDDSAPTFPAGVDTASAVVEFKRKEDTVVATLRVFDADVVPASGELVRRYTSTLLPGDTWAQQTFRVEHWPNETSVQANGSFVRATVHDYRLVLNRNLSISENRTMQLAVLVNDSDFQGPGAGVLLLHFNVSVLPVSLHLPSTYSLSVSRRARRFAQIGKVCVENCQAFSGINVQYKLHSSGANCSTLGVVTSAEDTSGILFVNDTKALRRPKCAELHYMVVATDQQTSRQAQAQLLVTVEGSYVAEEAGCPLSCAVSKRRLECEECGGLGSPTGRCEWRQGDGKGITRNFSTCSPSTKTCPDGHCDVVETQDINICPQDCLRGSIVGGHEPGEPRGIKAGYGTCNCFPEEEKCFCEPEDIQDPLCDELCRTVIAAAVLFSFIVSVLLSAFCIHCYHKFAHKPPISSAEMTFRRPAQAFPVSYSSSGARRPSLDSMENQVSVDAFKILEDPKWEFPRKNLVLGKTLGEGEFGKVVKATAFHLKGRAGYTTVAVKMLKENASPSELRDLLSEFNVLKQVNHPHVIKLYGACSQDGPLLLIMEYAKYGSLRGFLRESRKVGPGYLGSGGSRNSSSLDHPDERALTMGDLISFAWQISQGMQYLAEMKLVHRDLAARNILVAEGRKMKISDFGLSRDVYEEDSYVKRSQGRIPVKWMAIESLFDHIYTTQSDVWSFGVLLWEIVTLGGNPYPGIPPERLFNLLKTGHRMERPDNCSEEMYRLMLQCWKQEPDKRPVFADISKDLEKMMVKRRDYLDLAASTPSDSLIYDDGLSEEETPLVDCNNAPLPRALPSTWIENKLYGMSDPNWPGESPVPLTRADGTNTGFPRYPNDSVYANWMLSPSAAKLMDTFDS", "test": "Kinase Profiler", "format": "biochemical", "experimental": "as §2"}, "Muscarinic M1": {"target": "Muscarinic M1 (Homo sapiens, UniProt P11229)", "test": "Safety screen", "format": "binding", "experimental": "as §1"}, "PI3K (p110b/p85a)(h)": {"target": "PI3K (p110b/p85a)(h) (Homo sapiens, UniProt P42338)", "test": "Kinase Profiler", "format": "biochemical", "experimental": "as §3"}},
  "note": "Entries after “also recorded” stand apart in the source; their conditions may differ.",
  "data": [
    {"smiles": "COc1ccc(OC)c(NS(=O)(=O)c2ccc(NC(=O)CCSc3ccc(C)cc3)cc2)c1", "note": "[Compound A41]", "values": [
      {"measurement": "% inh.", "setting": "Tachykinin NK1", "value": 41, "unit": "%"},
      {"measurement": "Activity(%)", "setting": "TrkB(h)", "value": 108, "unit": "%"},
      {"measurement": "Activity(%)", "setting": "IR(h)", "value": 137, "unit": "%"},
      {"measurement": "Activity(%)", "setting": "PAK2(h)", "value": 110, "unit": "%"},
      {"measurement": "% inh.", "setting": "[1]", "value": -12, "unit": "%"},
      {"measurement": "Activity(%)", "setting": "CHK2(I157T)(h)", "value": 112, "unit": "%"},
      {"measurement": "Activity(%)", "setting": "NEK11(h)", "value": 99, "unit": "%"},
      {"measurement": "Activity(%)", "setting": "Pim-1(h)", "value": 95, "unit": "%"},
      {"measurement": "Activity(%)", "setting": "SGK3(h)", "value": 106, "unit": "%"},
      {"measurement": "number of liver metastases", "setting": "CT26 cells", "value": "significantly reduced the number of metastases; also recorded: more effective than 5-fluorouracil (5FU)"},
      {"measurement": "Activity(%)", "setting": "CDK12/cyclinK(h)", "value": 100, "unit": "%"},
      {"measurement": "Activity(%)", "setting": "CDK13/cyclinK(h)", "value": 97, "unit": "%"},
      {"measurement": "Activity(%)", "setting": "MARK1(h)", "value": 110, "unit": "%"},
      {"measurement": "Activity(%)", "setting": "JNK2α2(h)", "value": 101, "unit": "%"},
      {"measurement": "Activity(%)", "setting": "MLCK(h)", "value": 103, "unit": "%"},
      {"measurement": "Activity(%)", "setting": "Abl (H396P) (h)", "value": 92, "unit": "%"},
      {"measurement": "Activity(%)", "setting": "JAK1(h)", "value": 99, "unit": "%"},
      {"measurement": "Activity(%)", "setting": "IGF-1R(h)", "value": 100, "unit": "%"},
      {"measurement": "Activity(%)", "setting": "PI3K (p110a/p65a)(m)", "value": 100, "unit": "%"},
      {"measurement": "Activity(%)", "setting": "Met(D1246N)(h)", "value": 119, "unit": "%"},
      {"measurement": "Activity(%)", "setting": "MARK4(h)", "value": 105, "unit": "%"},
      {"measurement": "Activity(%)", "setting": "CHK1(h)", "value": 120, "unit": "%"},
      {"measurement": "Activity(%)", "setting": "EphA1(h)", "value": 87, "unit": "%"},
      {"measurement": "Activity(%)", "setting": "CLK1(h)", "value": 81, "unit": "%"},
      {"measurement": "Activity(%)", "setting": "TNIK(h)", "value": 94, "unit": "%"},
      {"measurement": "Activity(%)", "setting": "Abl(T315I)(h)", "value": 117, "unit": "%"},
      {"measurement": "Activity(%)", "setting": "NDR1(h)", "value": 114, "unit": "%"},
      {"measurement": "Activity(%)", "setting": "MST4(h)", "value": 101, "unit": "%"},
      {"measurement": "Activity(%)", "setting": "PKR(h)", "value": 101, "unit": "%"},
      {"measurement": "Activity(%)", "setting": "Plk1(h)", "value": 106, "unit": "%"},
      {"measurement": "Activity(%)", "setting": "Ret(V804M)(h)", "value": 106, "unit": "%"},
      {"measurement": "% inh.", "setting": "Muscarinic M1", "value": 11, "unit": "%"},
      {"measurement": "Activity(%)", "setting": "PI3K (p110b/p85a)(h)", "value": 101, "unit": "%"}
    ]}
  ]
}
